Source: US10519504B2, “Methods for treatment of oncological disorders using epimetabolic shifters, multidimensional intracellular molecules, or environmental influencers” (Berg LLC, priority 2009, dated 2019)
Read-outs that look alike come from different tables or passages of the source.

Key:
[1] = system: induced pancreatic cancer; details: for survival after 28 days: intravenous
[2] = system: various cell types; assay: Induction of early apoptosis in oncogenic and normal cell types (Bcl-2, caspase, annexin V); assay type: cell-based
Procedure: CoQ10 treatment of cells was carried out as described in detail below in the Materials and Methods. Induction of apoptosis was assessed in the treated cells by monitoring indicators of early apoptosis (e.g., Bcl-2 expression, caspase activation and by using annexin V assays) as described below. From these studies, the minimal CoQ10 dosage, e.g., concentration of CoQ10 and time of treatment, required to induce apoptosis in the panel of cell lines was determined.
Cells were cultured in T-75 flasks with relevant medium supplemented with 10% Fetal Bovine Serum (FBS), 1% PSA (penicillin, streptomycin, amphotericin B) (Invitrogen and Cellgro) in a 37° C. incubator with 5% CO2 levels until 70-80% confluence was reached. To harvest cells for treatment, flasks were primed with 1 mL Trypsin, aspirated, trypsinized with an additional 3 mL, and incubated at 37° C. for 3-5 minutes. Cells were then neutralized with an equal volume of media and the subsequent solution was centrifuged at […] for 8 minutes. The supernatant was aspirated and the cells were resuspended with 8.5 ml of media. A mixture of 500 ul of the resuspension and 9.5 ml of […] was read twice by a coulter counter and the appropriate number of cells to be seeded into each dish was determined. Control and concentration ranging from 0-200 μM groups were examined in triplicate. From a 500 μM CoQ-10 stock solution, serial dilutions were performed to achieve desired experimental concentration in appropriate dishes. Dishes were incubated in a 37° C. incubator with 5% CO2 levels for 0-72 hours depending on cell type and experimental protocol.
The volume of sample to load per well was determined using the raw mean concentration of protein obtained from the BCA protein assay. Approximately 30-60 μg of protein were loaded for each treatment time point. Proteins were run in triplicate on 12% Tris-HCl ready gels (Bio-Rad) or hand cast gels in 1× running buffer at 85 and 100 volts. Proteins were then transferred onto nitrocellulose paper for an hour at 100 volts, and blocked for another hour in a 5% milk solution. Membranes were placed in primary antibody (1 uL Ab:1000 uL TBST) (Cell Signaling) overnight at […] The following day, membranes were washed three times for ten minutes each with Tris-Buffered Saline Tween-20 (TBST), and secondary antibody (anti-rabbit; 1 uL Ab: 1000 uL TBST) was applied for an hour at […] Membranes were washed again three times for ten minutes with TBST and chemoluminescence using Pico or Femto substrate was completed (Pierce). Membranes were then developed at time intervals that produced the best visual results. After developing, membranes were kept in TBST at […] until Actin levels could be measured.
Cells were washed twice in PBS10× and resuspended in Binding Buffer (0.1 M HEPES, pH 7.4; 1.4 M NaCl; 25 mM CaCl2). Samples of 100 μl were added to a culture tube with 5 μl of annexin-PE dye or […]. The cells were mixed and incubated without light at room temperature for 15 minutes. After which, 400 μl of 1× Binding Buffer was added to each sample and they were subjected to analysis by flow cytometry.

[3] = system: SkBr-3 cells; assay: Real-time PCR Apoptosis Array; assay type: cell-based, human
Procedure: RNA was quantified by measuring Optical Density at 260 nm.
Changes in mRNA levels were evaluated using real-time PCR quantification to assess mRNA levels in pre-selected subsets containing […] pathway specific targets.
The assay method of RT-PCR was utilized to provide a measure of mRNA level changes to a total of 84 apoptotic pathway related proteins.

[4] = system: HAEC, MCF-7, HepG2 and PC-3 cell lines; assay: OCR and ECAR, SeaHorse XF analyzer (data not shown); assay type: cell-based, human; details: absence and/or presence of stressors (hyperglycemia, hypoxia, lactic acid)
Procedure: (SeaHorse Biosciences Inc, North Billerica, Mass.).
A similar comparison of OCR and ECAR values (data not shown) were determined in numerous other normal and cancer cells lines, including: HAEC (normal human aortic endothelial cells), MCF-7 (breast cancer), HepG2 (liver cancer) and highly metastatic PC-3 (prostate cancer) cell lines. […] Thus, the overall effect of CoQ10 in the treatment of cancer, including cell death, is an downstream effect of its collective influence on proteomic, genomic, metabolomic outcomes in concert with shifting of the cellular bioenergetics from glycolysis to mitochondrial OXPHOS.

[5] = system: HepG2 (liver cancer) cells; assay: Real-time PCR Angiogenesis Array; assay type: cell-based; details: 100 μM Q10, genes: ANGPTL3, ANGPTL4, CXCL1, CXCL3, CXCL5, ENG, ID3, MMP2, TIMP3
Procedure: The treatment was initiated on 1×10^5 cells per well, following the procedure utilized in the PaCa2 cells (above Examples 9-11). However, the total amount of RNA that was extracted from these samples was lower than expected. Reverse transcription is normally done using 1 μg of total RNA (determined by measurement at 260 nm). The maximum volume that can be used per reverse transcription is 8 μl.

[6] = system: SKBr3; assay: Nexin assay for apoptosis (Annexin-V-PE/7-AAD, flow cytometry); assay type: cell-based, human; details: 50 μM or 100 μM Q10, 24 hours
Text: The 7AAD dye will enter into cells with permeabilized cell membranes; primarily those cells that are in late apoptosis. Annexin-V-PE is a dye that binds to Phosphotidyl serine, which is exposed on the outer surface of the plasma membrane in early apoptotic cells. The Nexin reagent thus can be used to differentiate between different populations of apoptotic cells in a flow cytometer.

In the case of `COC1=C(OC)C(=O)C(C/C=C(\C)CC/C=C(\C)CC/C=C(\C)CC/C=C(\C)CC/C=C(\C)CC/C=C(\C)CC/C=C(\C)CC/C=C(\C)CC/C=C(\C)CCC=C(C)C)=C(C)C1=O` [Q10, Coenzyme Q10], the “dose response of survival” value ([1]; 5 to 50 mg/kg) is reported as “those animals receiving higher doses had a higher survival rate”, the “survival after 28 days” value ([1]; Group G: 50 mg/kg) is reported as “all of the animals receiving the highest dose of coenzyme Q10 (Group G) remained alive at 28 days” and the “survival after 28 days” value ([1]; Groups D, E, F: 5, 10, 25 mg/kg) is reported as “most of the animals in Groups D, E and F remained alive”. For the same compound, the “Indication of Early apoptosis (Bcl-2, annexin V, or caspase activation)” value (“Indication of Early apoptosis” for short) ([2]; BONE: Ewing's sarcoma (NCI), wrapped cell reads Extremely strong) was “Extremely”, the “Indication of Early apoptosis” value ([2]; BREAST: Mammary fiboblasts: 184A1 and 184B5) (Lawrence Berkeley)) was “None” and the “Indication of Early apoptosis” value ([2]; SKIN: Melanoma (Skmel 2)) was “Very Strong”. For the same compound, the “Indication of Early apoptosis” value ([2]; SKIN: Melanoma (Skmel 28)) was “Strong”, the “Indication of Early apoptosis” value ([2]; SKIN: SCC, Squamous cell carcinoma) was “Very Strong” and the “dose dependent response of cancer vs control cell lines” value ([2]; keratinocytes, melanocytes vs SK-MEL-28, SK-MEL-2, SCC, PaCa2, HEP-G2, various levels) was “induction of apoptosis and cell death in the cancer cells only”. For the same compound, the “efficacy of treatment by cell type” value ([2]; oncogenic cell lines of differing aggressiveness) was “greater in cell types that exhibited increased oncogenicity and/or greater metastatic potential”, the “mRNAs Bcl2, Bcl2L1, Bcl2L11, Birc6, Bax, Xiap, Hprt1, Apaf1, Abl1, Braf” value ([3]; SkBr3, Q10 24 hr) was “affected” and the “Bcl-xl mRNA level” value ([3]; apoptosis array) was “significant up-regulation”. For the same compound, the “OCR and ECAR values” [4] was “shift in OCR and ECAR values representative of values observed in a normal cells under normal physiological conditions”, the “genes regulated in the Angiogenesis Arrays” value [5] was “List of genes regulated in the Angiogenesis Arrays” and the “early and late apoptosis” value [6] was “did not show any significant increases of early and late apoptosis”.
